Among the test systems are SNB-78 CNS; XF 498 CNS; M19-MEL melanoma; RXF-631 renal; MDA-MB-231 breast; MDA-N.
What all share (test): NCI anticancer screen, dose series, 48 h

Molecules are shown by their SMILES. “And” between values parts separate entries of the source, which are not always exact repeats. Equal entries are not always repeated.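 Method: 48-hour compound exposure of cells in 96-well plates, five concentrations, linear interpolation of endpoints. GI50 marks 50% less growth. TGI: concentration producing complete growth inhibition.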

Consider `Cc1cccc(C)c1NC(=O)CCC/C(CC(=O)c1ccc(F)cc1)=N\NC(=O)C(=O)NN`, for which the TGI in the experiment on SNB-78 CNS, in the experiment with XF 498 CNS, with M19-MEL melanoma and in the experiment on RXF-631 renal was greater than 100 µM in each case.

As for `Nc1ccc(-c2cc(C(=O)Nc3nccs3)[nH]c(=S)n2)cc1`, the TGI in the experiment with SNB-78 CNS, in the experiment on XF 498 CNS and with M19-MEL melanoma was greater than 100 µM in each case.

For the compound `O=[N+]([O-])c1cccc(-c2nc(-c3ccc(Cl)cc3Cl)cn2-c2ccccc2)c1`, in the experiment with MDA-MB-231 breast, the GI50 was 1.93 µM and the TGI was greater than 20.5 µM.

Turning to `O=C(O)c1cc2ccccc2c2c3c(ccc12)OCO3`, in the experiment with MDA-MB-231 breast, the GI50 is 165 µM and the TGI was greater than 1000 µM.

Consider `Cc1ccc(C(=O)NCCCOc2ccc(N3C(N)=NC(N)=NC3(C)C)cc2Cl)cc1S(=O)(=O)F`, for which, in the experiment on MDA-MB-231 breast, the GI50 is greater than 100 µM and the TGI is greater than 100 µM.

On to `CC(C)c1ccc(C2NC(=S)NC3=C2c2ccccc2C3=O)cc1` (stereo not given), for which the TGI with MDA-N was 20.6 µM; in the experiment on XF 498 CNS, greater than 100 µM; in the experiment with MDA-MB-231 breast, 31 µM; in the experiment on M19-MEL melanoma it was greater than 100 µM; in the experiment with RXF-631 renal, greater than 100 µM.

Take `Cc1ccc(S(=O)(=O)N/N=C(\c2nc3ccc([N+](=O)[O-])cc3[nH]c2=O)C(O)c2ccc([N+](=O)[O-])cc2)cc1` (stereo not given): the TGI in the experiment with SNB-78 CNS, with XF 498 CNS and in the experiment on M19-MEL melanoma was greater than 100 µM throughout.

On to `O=C(Cc1nc2sc3c(c2c(=O)[nH]1)CCCC3)Nc1ccccc1`, for which the TGI in the experiment with XF 498 CNS and in the experiment with M19-MEL melanoma was greater than 100 µM each time.

Regarding `CCCCC(C)/C=C/C(=O)C1=C(O)/C(=C/C(=O)O)OC1=O` (stereo not given), the TGI with SNB-78 CNS, with XF 498 CNS and in the experiment on RXF-631 renal was greater than 100 µM in each case.

As to `CCC/C=C\C=C\C1(NS(=O)(=O)c2ccc(C)cc2)CCC(C(C)(C)C)CC1` (stereo not given), the TGI was 72.3 µM in the experiment on SNB-78 CNS, 35.7 µM in the experiment with XF 498 CNS and 44.9 µM in the experiment on M19-MEL melanoma.

On to `CCCCCCCCCCCCCCCCCCNCc1ccc(Cl)cc1`, for which, in the experiment on MDA-MB-231 breast, the GI50 is 1.84 µM and the TGI was found to be 4.3 µM.

For the compound `COC(=O)c1cccc2c3ccccc3c3ccccc3c12`, the TGI with M19-MEL melanoma was greater than 100 µM.

Regarding `Cc1ccc(Nc2cc(Cl)c([N+](=O)[O-])cc2[N+](=O)[O-])cc1`, in the experiment on MDA-MB-231 breast, the GI50 was 4.42 µM and the TGI is 15.8 µM.

In the case of `S=c1o[nH]c(-c2ccccc2)c1C=Nc1ccccc1`, the TGI in the experiment on SNB-78 CNS and in the experiment with XF 498 CNS was greater than 100 µM throughout.

As to `COCCOCCOCc1n(Cc2ccc3ccccc3c2)c2ccccc2[n+]1Cc1ccc2ccccc2c1`, in the experiment on MDA-MB-231 breast, the GI50 was 0.38 µM and the TGI was found to be 1.64 µM.

On to `CCOC(=O)Nc1nc2ccccc2[nH]1`, for which, in the experiment on MDA-MB-231 breast, the GI50 was 12.9 µM and 19.3 µM; the TGI is greater than 100 µM.

`Cc1cc(C(=O)Nc2n[nH]c3ccccc23)n[nH]1`: in the experiment on MDA-MB-231 breast, the GI50 was greater than 100 µM and the TGI was greater than 100 µM.

On to `CC[C@@]1(OC(=O)C(N)CCCCN)C(=O)OCc2c1cc1n(c2=O)Cc2cc3ccccc3nc2-1` (stereo not given in full), for which the TGI was 4.44 µM in the experiment with MDA-N; greater than 100 µM in the experiment on SNB-78 CNS; 1.78 µM with XF 498 CNS; greater than 100 µM with MDA-MB-231 breast; 0.509 µM in the experiment with M19-MEL melanoma.

As to `C=C1C(=O)OC2C1C(OC(=O)/C(C)=C/C)CC(O)(CCl)C1C(O)C=C(C)C21O` (stereo not given), the TGI with MDA-N was determined as 37.3 µM; in the experiment on MDA-MB-231 breast, 30.9 µM.

For `Cc1ccc(S(=O)(=O)NC(=O)NCCc2ccccc2)cc1`, the TGI with SNB-78 CNS, in the experiment on XF 498 CNS and in the experiment with M19-MEL melanoma was greater than 100 µM throughout.

As for `O=C1N2Cc3c4ccc5c3CN3C(=O)N6Cc7c(ccc(c7CN1C6(c1ccccc1)C23c1ccccc1)OCCOCCOc1cc(Br)c(Br)cc1OCCOCCO4)OCCOCCOc1cc(Br)c(Br)cc1OCCOCCO5` (stereo not given), the TGI in the experiment on SNB-78 CNS, with M19-MEL melanoma and in the experiment with RXF-631 renal was greater than 100 µM in each case.

Consider `CCC1C(C)C=NN1c1nc(N)nc(C(C#N)=Nc2ccc(N(C)C)cc2)n1` (stereo not given), for which, in the experiment on MDA-MB-231 breast, the GI50 is 11.4 µM and the TGI is 30.9 µM.

On to `Cc1ccc(S(=O)(=O)OCC#CCOS(=O)(=O)c2ccc(C)cc2)cc1`, for which, in the experiment with MDA-MB-231 breast, the GI50 was 3.39 µM and the TGI turned out to be 11 µM.

`O=C(Nc1cccc(-n2cc(-c3ccncc3)c(-c3ccc(O)c(Cl)c3)n2)c1)c1ccc2c(c1)OCCO2`: in the experiment with MDA-MB-231 breast, the GI50 was 2.92 µM and the TGI is greater than 100 µM.

With `Nc1ccccc1C#C/C=C\C#CC#C/C=C\C#Cc1ccccc1N`, in the experiment with MDA-MB-231 breast, the GI50 was 1.54 µM and the TGI amounted to 14.8 µM.

On to `O=[P+](O)c1ccccn1`, for which the TGI in the experiment on SNB-78 CNS, in the experiment on XF 498 CNS and in the experiment on M19-MEL melanoma was greater than 100 µM each time.

On to `Cc1cccc(C)c1NC(=O)CCc1nnc2s/c(=C\c3ccc(N(C)C)cc3)c(=O)n12`, for which the TGI in the experiment on SNB-78 CNS, in the experiment with XF 498 CNS and in the experiment with RXF-631 renal was greater than 100 µM in each case.

`CCOC(=O)C(Cc1c[nH]c2cc(N(CCO)CCO)ccc12)(NC(C)=O)C(=O)OCC`: in the experiment with MDA-MB-231 breast, the GI50 was 960 µM and the TGI is greater than 1000 µM.

In the case of `COc1cccc(/C=C/c2nc3c(cnn3-c3ccccc3)c(=O)[nH]2)c1`, in the experiment on MDA-MB-231 breast, the GI50 was 50 µM and the TGI is greater than 100 µM.

Take `COC(=O)CCC(=O)N1C/C(=C\c2ccccc2)C(=O)/C(=C/c2ccccc2)C1`: the TGI was found to be 7.83 µM in the experiment on SNB-78 CNS, 19.2 µM with XF 498 CNS and 11.7 µM with M19-MEL melanoma.

As to `NCCCOc1cc2ccccc2cc1C(=O)Nc1ccc(Cl)cc1OC(=O)c1cc2ccccc2cc1OCCCN`, in the experiment with MDA-MB-231 breast, the GI50 is 0.596 µM and the TGI turned out to be 1.99 µM.

In the case of `Cc1cc(C(=O)/C=C/c2ccc[nH]2)ccc1-n1ccc(C(F)(F)F)n1`, in the experiment on MDA-MB-231 breast, the GI50 was 27.6 µM and the TGI is greater than 100 µM.
